Assay results reported in patent US20100160369A1, “S1P1 Agonists and Methods of Making And Using” (EXELIXIS, INC., priority 2008, published 2010).

These compounds were tested against S1P1 (Homo sapiens, UniProt P21453) (assay: CNG cAMP Assay (Assay 1)). Settings: footnote 1: Relative EC50 was measured, read-out: Assay 1 Relative EC50.
Sequence of S1P1 (P21453 whole entry): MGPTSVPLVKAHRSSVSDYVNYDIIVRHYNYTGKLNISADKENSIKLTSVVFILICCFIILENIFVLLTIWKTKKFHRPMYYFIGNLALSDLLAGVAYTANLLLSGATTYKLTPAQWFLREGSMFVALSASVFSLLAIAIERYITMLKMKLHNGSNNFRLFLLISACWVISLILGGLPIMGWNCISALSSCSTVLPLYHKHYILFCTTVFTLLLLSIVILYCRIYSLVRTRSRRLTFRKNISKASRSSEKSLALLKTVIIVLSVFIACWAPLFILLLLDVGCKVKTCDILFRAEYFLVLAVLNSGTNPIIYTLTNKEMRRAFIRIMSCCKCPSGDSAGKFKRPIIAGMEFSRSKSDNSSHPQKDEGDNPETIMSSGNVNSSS
Type: cell-based
Set-up: host or cells: HEK293 cells expressing the CNG channel
Experimental: Frozen HEK293 cells expressing the CNG channel and S1P1 (BD Biosciences, San Jose, Calif.) were thawed and plated into the wells of a black, clear bottom, 384-well CellBind plate (Corning, Corning, N.Y.) at 14,000 cells per well. HEK293 cells expressing the CNG channel and CB1 (BD Biosciences) were cultured and plated under the same conditions. The cells were incubated for 16 h at 37° C. in complete DMEM medium (Invitrogen Carlsbad, Calif.) containing 10% FBS (HyClone Logan, Utah), 250 μg/mL geneticin (Invitrogen), and 1 μg/mL puromycin (Sigma-Aldrich, St. Louis, Mo.). A membrane potential dye (BD Biosciences) was added and the plates were incubated for 2-2.5 h at room temperature.
Test compounds were tested at maximum concentrations of 10 μM. Compounds were diluted in DMSO (10 concentration points, 3-fold each) and added to the assay plate at final DMSO concentrations of 1.8%. For each compound, there were duplicate assay plates and each assay plate had duplicate wells per concentration point. Test compounds were added to the cells in a DPBS solution containing 25 μM Ro 20-1724 (Sigma-Aldrich), 500 nM of the A2b receptor agonist NECA (Sigma-Aldrich) and 10 nM (EC95) of S1P (Avanti Alabaster, Ala.) and incubated for 90 min. The assay plate was read before compound addition (T0) and after the 90 min incubation (T90) using an EnVision plate reader (PerkinElmer, Waltham, Mass.) at an excitation wavelength of 350 nm and an emission wavelength of 590 nm. The T90/T0 ratio was determined for each concentration of the test compounds. The percent agonist activity was determined as [(test compound−DMSO alone control)/(NECA alone control−DMSO alone control)*100]. The percent activities were plotted against compound concentration to determine EC50 using XLFit (IDBS, Alameda, Calif.). The control used for calculating rEC50 in the S1P1 CNG agonist assay was DMSO.
Assay 1 is the CNG cAMP Assay as described in Biological Example 1. Assay 2a and 2b are the Tango™ β-arrestin Recruitment Assay in HEK293 and U2OS cells, respectively, as described in Biological Example 2. Assay 3a is the hS1P1R GTPγS Binding Assay as described in Biological Example 3. Assay 3b is the GTP-Eu Binding Assay as described in Biological Example 3. EC50's were measured unless otherwise noted. […] In the table, “nt” means the Compound was not tested and “no” means the compound was tested but had no measurable activity under the assay conditions employed.
For `O=C(O)c1cc2cc(-c3noc(-c4cn5cc(C(F)(F)F)cc(Cl)c5n4)n3)ccc2o1` [Example 158, 5-{5-[8-chloro-6-(trifluoromethyl)imidazo[1,2-a]pyridin-2-yl]-1,2,4-oxadiazol-3-yl}-1-benzofuran-2-carboxylic acid], the EC50 was 1 to 5 µM.
`O=C(O)c1cc2cc(-c3noc(-c4cn5cc(C(F)(F)F)cc(Cl)c5n4)n3)ccc2[nH]1` [Example 169, 5-{5-[8-chloro-6-(trifluoromethyl)imidazo[1,2-a]pyridin-2-yl]-1,2,4-oxadiazol-3-yl}-1H-indole-2-carboxylic acid] showed an EC50 of 5 to 10 µM.
`CC(Oc1cc(Cl)c(-c2nc(-c3cn4cc(C(F)(F)F)cc(Cl)c4n3)no2)cc1F)C(=O)O` (stereo not drawn) [Example 205, 2-[(5-chloro-4-{3-[8-chloro-6-(trifluoromethyl)imidazo[1,2-a]pyridin-2-yl]-1,2,4-oxadiazol-5-yl}-2-fluorophenyl)oxy]propanoic acid] showed an EC50 of 0.1 to 0.5 µM.

Same assay, conditions: read-out: Assay 1 EC50
Compound `Cc1cc(F)ccc1-c1noc(-c2cn3cc(C(F)(F)F)cc(Cl)c3n2)n1` [Example 152, 8-chloro-2-[3-(4-fluoro-2-methylphenyl)-1,2,4-oxadiazol-5-yl]-6-(trifluoromethyl)imidazo[1,2-a]pyridine] has an EC50 of no more than 0.1 µM.
For `Fc1cccc(-c2noc(-c3cn4cc(C(F)(F)F)cc(Cl)c4n3)n2)c1Cl` [Example 157, 8-chloro-2-[3-(2-chloro-3-fluorophenyl)-1,2,4-oxadiazol-5-yl]-6-(trifluoromethyl)imidazo[1,2-a]pyridine], the EC50 was 0.1 to 0.5 µM.
`FC(F)(F)c1cc(Cl)c2nc(-c3nc(-c4cccc5[nH]ccc45)no3)cn2c1` [Example 162, 8-chloro-2-[3-(1H-indol-4-yl)-1,2,4-oxadiazol-5-yl]-6-(trifluoromethyl)imidazo[1,2-a]pyridine] gave an EC50 of no more than 0.1 µM.
Work on `Fc1cccc(Cl)c1-c1noc(-c2cn3cc(C(F)(F)F)cc(Cl)c3n2)n1` [Example 163, 8-chloro-2-[3-(2-chloro-6-fluorophenyl)-1,2,4-oxadiazol-5-yl]-6-(trifluoromethyl)imidazo[1,2-a]pyridine] yielded an EC50 of 0.1 to 0.5 µM.
`FC(F)(F)c1cc(Cl)c2nc(-c3nc(-c4ccc5[nH]cnc5c4)no3)cn2c1` [Example 164, 5-{5-[8-chloro-6-(trifluoromethyl)imidazo[1,2-a]pyridin-2-yl]-1,2,4-oxadiazol-3-yl}-1H-benzimidazole] was tested, and the EC50 was 0.1 to 0.5 µM.
In the case of `FC(F)(F)c1cc(Cl)c2nc(-c3nc(-c4ccccc4C(F)(F)F)no3)cn2c1` [Example 165, 8-chloro-6-(trifluoromethyl)-2-{3-[2-(trifluoromethyl)phenyl]-1,2,4-oxadiazol-5-yl}imidazo[1,2-a]pyridine], the EC50 is reported as 0.1 to 0.5 µM.
`Fc1ccc(-c2noc(-c3cn4cc(C(F)(F)F)cc(Cl)c4n3)n2)c(Br)c1` [Example 168, 2-[3-(2-bromo-4-fluorophenyl)-1,2,4-oxadiazol-5-yl]-8-chloro-6-(trifluoromethyl)imidazo[1,2-a]pyridine] showed an EC50 of no more than 0.1 µM.
Work on `CC(CC(N)=O)c1ccc(-c2noc(-c3cn4cc(C(F)(F)F)cc(Cl)c4n3)n2)c(Cl)c1` (stereo not drawn) [Example 170, 3-(3-chloro-4-{5-[8-chloro-6-(trifluoromethyl)imidazo[1,2-a]pyridin-2-yl]-1,2,4-oxadiazol-3-yl}phenyl)butanamide] yielded an EC50 of no more than 0.1 µM.
In the case of `NC(=O)Cn1ccc2c(-c3noc(-c4cn5cc(C(F)(F)F)cc(Cl)c5n4)n3)cccc21` [Example 174, 2-(4-{5-[8-chloro-6-(trifluoromethyl)imidazo[1,2-a]pyridin-2-yl]-1,2,4-oxadiazol-3-yl}-1H-indol-1-yl)acetamide], the EC50 is reported as no more than 0.1 µM.
With `O=C(Cn1ccc2c(-c3noc(-c4cn5cc(C(F)(F)F)cc(Cl)c5n4)n3)cccc21)NCCO` [Example 175, 2-(4-{5-[8-chloro-6-(trifluoromethyl)imidazo[1,2-a]pyridin-2-yl]-1,2,4-oxadiazol-3-yl}-1H-indol-1-yl)-N-(2-hydroxyethyl)acetamide] the EC50 was no more than 0.1 µM.
With `FC(F)(F)c1ccc(-c2noc(-c3cn4cc(C(F)(F)F)cc(Cl)c4n3)n2)c(Cl)c1` [Example 183, 8-chloro-2-{3-[2-chloro-4-(trifluoromethyl)phenyl]-1,2,4-oxadiazol-5-yl}-6-(trifluoromethyl)imidazo[1,2-a]pyridine] the EC50 was 0.5 to 1 µM.
Compound `CC(CC(=O)O)c1ccc(-c2noc(-c3cn4cc(C(F)(F)F)cc(Cl)c4n3)n2)c(F)c1` (stereo not drawn) [Example 186, 3-(4-{5-[8-chloro-6-(trifluoromethyl)imidazo[1,2-a]pyridin-2-yl]-1,2,4-oxadiazol-3-yl}-3-fluorophenyl)butanoic acid] has an EC50 of 0.1 to 0.5 µM.
`Oc1ccc(-c2noc(-c3cn4cc(C(F)(F)F)cc(Cl)c4n3)n2)c(Cl)c1` [Example 187, 3-chloro-4-{5-[8-chloro-6-(trifluoromethyl)imidazo[1,2-a]pyridin-2-yl]-1,2,4-oxadiazol-3-yl}phenol] gave an EC50 of no more than 0.1 µM.
`N[C@@H](COc1ccc(-c2noc(-c3cn4cc(C(F)(F)F)cc(Cl)c4n3)n2)c(Cl)c1)C(=O)O` [Example 188, O-(3-chloro-4-{5-[8-chloro-6-(trifluoromethyl)imidazo[1,2-a]pyridin-2-yl]-1,2,4-oxadiazol-3-yl}phenyl)serine] was tested, and the EC50 was 0.1 to 0.5 µM.
With `CC(Cc1ccc(-c2noc(-c3cn4cc(C(F)(F)F)cc(Br)c4n3)n2)c(Cl)c1)C(=O)O` (stereo not drawn) [Example 189, 3-(4-{5-[8-bromo-6-(trifluoromethyl)imidazo[1,2-a]pyridin-2-yl]-1,2,4-oxadiazol-3-yl}-3-chlorophenyl)-2-methylpropanoic acid] the EC50 was no more than 0.1 µM.
`CC(Cc1ccc(-c2noc(-c3cn4cc(C(F)(F)F)cc(Cl)c4n3)n2)c(F)c1)C(=O)O` (stereo not drawn) [Example 192, 3-(4-{5-[8-chloro-6-(trifluoromethyl)imidazo[1,2-a]pyridin-2-yl]-1,2,4-oxadiazol-3-yl}-3-fluorophenyl)-2-methylpropanoic acid] showed an EC50 of 0.1 to 0.5 µM.
Compound `NC(CC(=O)O)c1ccc(-c2noc(-c3cn4cc(C(F)(F)F)cc(Cl)c4n3)n2)c(Cl)c1` (stereo not drawn) [Example 193, 3-amino-3-(3-chloro-4-{5-[8-chloro-6-(trifluoromethyl)imidazo[1,2-a]pyridin-2-yl]-1,2,4-oxadiazol-3-yl}phenyl)propanoic acid] has an EC50 of 0.1 to 0.5 µM.
`NCCOc1ccc(-c2nc(-c3cn4cc(C(F)(F)F)cc(Cl)c4n3)no2)c(Cl)c1` [Example 195, 2-[(3-chloro-4-{3-[8-chloro-6-(trifluoromethyl)imidazo[1,2-a]pyridin-2-yl]-1,2,4-oxadiazol-5-yl}phenyl)oxy]ethanamine] showed an EC50 of 0.1 to 0.5 µM.
`Oc1cc(Cl)c(-c2noc(-c3cn4cc(C(F)(F)F)cc(Br)c4n3)n2)cc1Cl` [Example 197, 4-{5-[8-bromo-6-(trifluoromethyl)imidazo[1,2-a]pyridin-2-yl]-1,2,4-oxadiazol-3-yl}-2,5-dichlorophenol] gave an EC50 of 0.1 to 0.5 µM.
`OCCCOc1ccc(-c2noc(-c3cn4cc(C(F)(F)F)cc(Cl)c4n3)n2)c(Cl)c1` [Example 199, 3-[(3-chloro-4-{5-[8-chloro-6-(trifluoromethyl)imidazo[1,2-a]pyridin-2-yl]-1,2,4-oxadiazol-3-yl}phenyl)oxy]propan-1-ol] gave an EC50 of 0.1 to 0.5 µM.
With `CC(N)COc1ccc(-c2noc(-c3cn4cc(C(F)(F)F)cc(Cl)c4n3)n2)c(Cl)c1` (stereo not drawn) [Example 200, 1-[(3-chloro-4-{5-[8-chloro-6-(trifluoromethyl)imidazo[1,2-a]pyridin-2-yl]-1,2,4-oxadiazol-3-yl}phenyl)oxy]propan-2-amine] the EC50 was 0.1 to 0.5 µM.
